Experimental data: patent publication US11680060B2, “Bicycloheptane pyrrolidine orexin receptor agonists” (Merck Sharp & Dohme LLC, priority 2020, dated 2023)

Molecular target: human OX2R (Homo sapiens (Human), UniProt O43614)
Assay: IPOne (IP-1) assay in CHO cells expressing human OX2R
Format: cell-based
Conditions: for Emax: CHO, read-out: Emax (%); for Emax / Emax (%): percentage of mean max effect of a reference compound at 1 uM (100% activity by comparison to Orexin A), human OX2R; for IC50: CHO cells expressing human OX2R, IP-One detection, 2 hours incubation, EC50 = inflection point of four parameter logistic fit, read-out: hOX2R_IP_IC50
Outline: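 CHO cells stably expressing human OX2R were stimulated with compound (10-point ½-log dilutions) for 2 h at 37 °C. IP-1 accumulation was read by HTRF (IP-One, 665/620 nm). EC50 from a four-parameter fit; % effect relative to 1 μM reference agonist control.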

human OX2R, sequence (O43614 whole entry): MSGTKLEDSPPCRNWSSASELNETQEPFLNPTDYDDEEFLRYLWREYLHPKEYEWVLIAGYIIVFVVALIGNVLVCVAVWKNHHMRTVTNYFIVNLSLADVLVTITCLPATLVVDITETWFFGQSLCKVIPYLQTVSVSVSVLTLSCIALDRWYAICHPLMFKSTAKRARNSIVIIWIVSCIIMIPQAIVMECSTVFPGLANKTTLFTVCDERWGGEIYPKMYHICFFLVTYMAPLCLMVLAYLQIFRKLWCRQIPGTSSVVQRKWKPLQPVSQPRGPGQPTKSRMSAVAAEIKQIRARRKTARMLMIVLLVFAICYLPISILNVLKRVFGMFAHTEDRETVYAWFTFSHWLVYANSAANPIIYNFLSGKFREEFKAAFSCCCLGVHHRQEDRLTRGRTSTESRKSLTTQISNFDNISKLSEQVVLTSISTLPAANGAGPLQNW

Emax [%] | IC50 [nM] | Emax (%) | SMILES
100 |  |  | COC(=O)N1[C@@H]2CCC[C@@H]2[C@H](NS(=O)(=O)C2CC2)[C@@H]1COC1CCC2(c3ncc(F)cn3)CC2C1 (stereo partly drawn) [Example 128, methyl (2R,3S,3aS,6aR)-3-(cyclopropanesulfonamido)-2-(((6-(5-fluoropyrimidin-2-yl)bicyclo[4.1.0]heptan-3-yl)oxy)methyl)hexahydrocyclopenta[b]pyrrole-1(2H)-carboxylate]
99.3 | 0.37 |  | CC(C)OC(=O)N1CCC[C@H](NS(=O)(=O)CF)[C@@H]1CO[C@H]1CC[C@@]2(c3ncc(F)cn3)C[C@H]2C1 (single isomer, unassigned) [Example 124]
100 | 0.99 |  | CCS(=O)(=O)N[C@H]1C[C@@H](C(F)F)N(C(=O)OC(C)C)[C@H]1CO[C@H]1CC[C@@]2(c3ncc(F)cn3)C[C@H]2C1 (single isomer, unassigned) [Example 118]
102 |  |  | CC(C)OC(=O)N1[C@H](C)C[C@H](NS(C)(=O)=O)[C@@H]1CO[C@@H]1CC[C@]2(c3ncc(F)cn3)C[C@@H]2C1 [Example 29, isopropyl (2R,3S,5R)-2-((((1R,3R,6S)-6-(5-fluoropyrimidin-2-yl)bicyclo[4.1.0]heptan-3-yl)oxy)methyl)-5-methyl-3-(methylsulfonamido)pyrrolidine-1-carboxylate]
 |  | 99.7 | COC(=O)N1[C@H](C)C[C@H](NS(C)(=O)=O)[C@@H]1CO[C@@H]1CC[C@]2(c3ncccn3)C[C@@H]2C1 (single isomer, unassigned) [Example 20]
 | 775 | 73.2 | CC(C)OC(=O)N1[C@H](C)C[C@H](NS(=O)(=O)C(F)F)[C@@H]1COC1CCC2(c3ncc(F)cn3)CC2C1 (single isomer, unassigned) [Example 92]
101 |  |  | CC(C)OC(=O)N1[C@H](C)C[C@H](NS(=O)(=O)N(C)C)[C@@H]1CO[C@H]1CC[C@@]2(c3ncccn3)C[C@H]2C1 [Example 171, isopropyl (2R,3S,5R)-3-((N,N-dimethylsulfamoyl)amino)-5-methyl-2-((((1S,3S,6R)-6-(pyrimidin-2-yl)bicyclo[4.1.0]heptan-3-yl)oxy)methyl)pyrrolidine-1-carboxylate]
 | 176 | 100.5 | COC(=O)N1[C@H](C)C[C@H](NS(C)(=O)=O)[C@@H]1COC1CCC2(c3ccccc3)CC2C1 (single isomer, unassigned) [Example 2]
